“Also recorded” adds a separate entry of the source. Where no end group is shown, it is not given here. [ ]: non-standard residue; d: D form. Lys(Me3) = C[N+](C)(C)CCCC[C@H](N)C(=O)O

One assay deals with KDM4A-I71AzF. As to the kind of experiment: CASI: photo-crosslinking with HEK293T cell extracts, StrepTactin enrichment and LC-MS/MS proteomics.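 Further: lysates from HEK293T cells pretreated with a KDM4 inhibitor to raise proteome methylation, affinity-purified after ±UV, gel-resolved, trypsin-digested, with exclusive unique peptides per protein averaged per condition.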 In kind it is binding, human. Particulars: sheet "Final results but with 0.01".
For another assay, the system named is KDM4A-E. The assay is described as follows: Demethylase activity of KDM4 subfamily on peptide substrates (MALDI-TOF MS), result worded for KDM4A-E together. In kind it is biochemical, human. Particulars: wild-type KDM4A-E, 10 µM enzyme, 10 µM peptide, 1 mM 2OG, 50 mM Tris pH 8, 37°C, three hours.

Regarding TPR_HUMAN, in the assay with KDM4A-I71AzF, the “Fold change (+UV/-UV)” value is 0.6212. On the same count and under the same terms, to HSP7C_HUMAN belongs 0.7407; to HNRPK_HUMAN, 1.273. Still for that read-out and setting: as for TCPH_HUMAN, the figure is 1.333.

With MSH6_HUMAN, in the assay with KDM4A-I71AzF, the “Fold change (+UV/-UV)” value worked out at 0.5. Same read-out and setting: as for DESP_HUMAN, the figure is 0.2222; as for RBP56_HUMAN, 1.

As to CLPX_HUMAN, in the assay on KDM4A-I71AzF, the “Fold change (+UV/-UV)” value turned out to be 1.5.

For NUMA1_HUMAN, the “Fold change (+UV/-UV)” value in the assay on KDM4A-I71AzF is recorded as 0. Same read-out and setting: as for TERA_HUMAN, the figure is 1.125; as for FAS_HUMAN, 0.3889; as for KPYM_HUMAN, 1.667. Same read-out and setting: as for ECHA_HUMAN, the figure is 1; as for KCRU_HUMAN, 200.

In the case of YLPM1_HUMAN, the “Fold change (+UV/-UV)” value in the assay on KDM4A-I71AzF is 0.6923. Turning to PO210_HUMAN, in the assay with KDM4A-I71AzF, the “Fold change (+UV/-UV)” value came to 0.1538. Take “RSASSNSR[Lys(Me3)]SLSPGVSR [compound 10, Acinus-K654me3 peptide]”: the “demethylation by KDM4A-E” value with KDM4A-E is recorded as “demethylated by multiple KDM4s; also recorded: robust demethylation”. As to ESYT1_HUMAN, in the assay on KDM4A-I71AzF, the “Fold change (+UV/-UV)” value is listed as 1.

Regarding HEAT1_HUMAN, the “Fold change (+UV/-UV)” value with KDM4A-I71AzF came out at 0. Still for that read-out and setting: as for TBA1B_HUMAN, the figure is 0.8182; as for SCRIB_HUMAN, 3; as for SMCA5_HUMAN, 0. Still for that read-out and setting: as for DHE3_HUMAN, the figure is 1.727; as for NU205_HUMAN, 0.6667.

MCM7_HUMAN: the “Fold change (+UV/-UV)” value in the assay with KDM4A-I71AzF was 0.3333. Turning to GRP75_HUMAN, the “Fold change (+UV/-UV)” value in the assay with KDM4A-I71AzF was determined as 0.7931. Turning to U520_HUMAN, the “Fold change (+UV/-UV)” value in the assay with KDM4A-I71AzF is 0.6129. “SRAHSSHLKme3SKKGQSTS [compound 18, P53-K370me3 peptide]”: the “demethylation by KDM4A-E” value with KDM4A-E was “failed to undergo demethylation by KDM4A-E”. As for IF4A1_HUMAN, the “Fold change (+UV/-UV)” value in the assay on KDM4A-I71AzF worked out at 200.

Regarding G3P_HUMAN, the “Fold change (+UV/-UV)” value in the assay with KDM4A-I71AzF worked out at 0.5. Still for that read-out and setting: as for SPTN1_HUMAN, the figure is 0. Same read-out and setting: as for NU214_HUMAN, the figure is 2. Same read-out and setting: as for PYR1_HUMAN, the figure is 0.125; as for U5S1_HUMAN, 0.6; as for CHD4_HUMAN, 0.3333. Consider G3BP1_HUMAN, for which, in the assay with KDM4A-I71AzF, the “Fold change (+UV/-UV)” value was found to be 0. As to SYNM_HUMAN, in the assay on KDM4A-I71AzF, the “Fold change (+UV/-UV)” value is 1. Same read-out and setting: as for BRE1B_HUMAN, the figure is 0.25; as for DOCK7_HUMAN, 0.8; as for HORN_HUMAN, 0. The same measure, in the same setting: as for TCPA_HUMAN, the figure is 2; as for TCPE_HUMAN, 0.3333; as for LAMP2_HUMAN, 2.

For the substance DNMT1_HUMAN, the “Fold change (+UV/-UV)” value in the assay on KDM4A-I71AzF is on record as 0.

Take I2BP2_HUMAN: the “Fold change (+UV/-UV)” value in the assay with KDM4A-I71AzF is 0.3333. On the same count and under the same terms, as for K2C4_HUMAN, the figure is 10; as for MPRI_HUMAN, 0; as for TCPG_HUMAN, 4. Same read-out and setting: to SP16H_HUMAN belongs 0.2857; to TLN1_HUMAN, 0.

In the case of ZN207_HUMAN, in the assay with KDM4A-I71AzF, the “Fold change (+UV/-UV)” value amounted to 1. Turning to INT3_HUMAN, the “Fold change (+UV/-UV)” value in the assay on KDM4A-I71AzF was determined as 2. As for RIF1_HUMAN, the “Fold change (+UV/-UV)” value with KDM4A-I71AzF stood at 1. Same read-out and setting: to KRT82_HUMAN belongs 200. For the substance “WENTLHTL[Lys(Me3)]QRQLTSYV [compound 17, NUP107-K305me3 peptide]”, the “demethylation by KDM4A-E” value with KDM4A-E is “failed to undergo demethylation by KDM4A-E”.

RRP5_HUMAN: the “Fold change (+UV/-UV)” value in the assay with KDM4A-I71AzF was found to be 0. Still for that read-out and setting: to GUAA_HUMAN belongs 0.6364; to RU17_HUMAN, 1; to PRKDC_HUMAN, 0.5. The same measure, in the same setting: as for TCPZ_HUMAN, the figure is 1. The same measure, in the same setting: to DHX9_HUMAN belongs 0.7895; to RBM25_HUMAN, 0.

As to CLH1_HUMAN, the “Fold change (+UV/-UV)” value with KDM4A-I71AzF is 1. Turning to “KGPDEAKI[Lys(Me3)]ALLERTGY [compound 11, hnRNPQ-K125me3 peptide]”, the “demethylation by KDM4A-E” value with KDM4A-E is listed as “failed to undergo demethylation by KDM4A-E; also recorded: not recognized as KDM4 substrates”.

As for FLNA_HUMAN, in the assay on KDM4A-I71AzF, the “Fold change (+UV/-UV)” value is given as 0.3571.

For the substance SSRP1_HUMAN, the “Fold change (+UV/-UV)” value with KDM4A-I71AzF came to 0. Same read-out and setting: as for XRCC6_HUMAN, the figure is 0.3333.

As for MAOM_HUMAN, the “Fold change (+UV/-UV)” value with KDM4A-I71AzF was 1.714.

With FILA2_HUMAN, in the assay with KDM4A-I71AzF, the “Fold change (+UV/-UV)” value was determined as 0.75. Still for that read-out and setting: to BRE1A_HUMAN belongs 0.1667. For “FNRMPIAR[Lys(Me3)]IIKDGEQH [compound 8, AIFM1-K590me3 peptide]”, the “demethylation by KDM4A-E” value in the assay with KDM4A-E is reported as “failed to undergo demethylation; also recorded: not recognized as KDM4 substrates”. As to HNRPU_HUMAN, in the assay on KDM4A-I71AzF, the “Fold change (+UV/-UV)” value is 0.6.

For the substance PTBP1_HUMAN, the “Fold change (+UV/-UV)” value in the assay on KDM4A-I71AzF was found to be 1.2.

As for CMC2_HUMAN, in the assay on KDM4A-I71AzF, the “Fold change (+UV/-UV)” value amounted to 0.5. The same measure, in the same setting: as for PABP1_HUMAN, the figure is 0.8571; as for UGGG1_HUMAN, 1. The same measure, in the same setting: to FTO_HUMAN belongs 1; to VIME_HUMAN, 0.875; to DHSA_HUMAN, 1. Regarding IF4G1_HUMAN, the “Fold change (+UV/-UV)” value with KDM4A-I71AzF is 0. Same read-out and setting: to ZO1_HUMAN belongs 1. Same read-out and setting: as for H12_HUMAN, the figure is 700; as for COR1C_HUMAN, 0.

Consider HSP71_HUMAN, for which the “Fold change (+UV/-UV)” value in the assay on KDM4A-I71AzF was determined as 0.6154. Take HS90B_HUMAN: in the assay on KDM4A-I71AzF, the “Fold change (+UV/-UV)” value is 0.75.

As to XRCC5_HUMAN, the “Fold change (+UV/-UV)” value in the assay with KDM4A-I71AzF amounted to 0.5.

As for ATPB_HUMAN, the “Fold change (+UV/-UV)” value in the assay on KDM4A-I71AzF amounted to 0.5789. The same measure, in the same setting: to MYH9_HUMAN belongs 0; to ENPL_HUMAN, 1.25. In the case of “AEVTRTAR[Lys(Me3)]QSAQKRVL [compound 16, Nup107-K25me3 peptide]”, the “demethylation by KDM4A-E” value in the assay with KDM4A-E is listed as “demethylated by multiple KDM4s; also recorded: robust demethylation”. As for PRP8_HUMAN, the “Fold change (+UV/-UV)” value in the assay with KDM4A-I71AzF turned out to be 0.32. “MPSASASR[Lys(Me3)]SQEKPREI [compound 14, SYDC-K9me3 peptide]”: the “demethylation by KDM4A-E” value in the assay on KDM4A-E is “not recognized as KDM4 substrates”. For CCAR2_HUMAN, the “Fold change (+UV/-UV)” value in the assay with KDM4A-I71AzF is recorded as 0.75. On the same count and under the same terms, as for GRP78_HUMAN, the figure is 0.5556. For “ALMLENLQ[Lys(Me3)]HSTPHAAF [compound 9, ACINUS-K113me3 peptide]”, in the assay on KDM4A-E, the “demethylation by KDM4A-E” value is on record as “failed to undergo demethylation by KDM4A-E”.

For the substance SYEP_HUMAN, in the assay on KDM4A-I71AzF, the “Fold change (+UV/-UV)” value is on record as 0.6667. Regarding “GGATSSAR[Lys(Me3)]NRWDEPTK [compound 12, SF3B1-K290me3 peptide]”, the “demethylation by KDM4A-E” value in the assay with KDM4A-E is “failed to undergo demethylation; also recorded: not recognized as KDM4 substrates”.

Values taken from article PMC10540216, “Activity Guided Azide-methyllysine Photo-trapping for Substrate Profiling of Lysine Demethylases” (Journal of the American Chemical Society, 2023).
